Results as given in article PMC3471904 (PLoS ONE, 2012).
Values after ≈ are worked out from the molar mass of the structure shown. Values joined by “and” are separate entries in the source; they are usually repeats but may differ in a detail not shown here. Equal entries are not always repeated. “Also recorded” adds a separate entry of the source. Where two headings read alike, the source gives them in different places.

Key:
F. novicida = system: F. novicida; set-up: species or system Galleria mellonella; settings: in vivo
F. novicida glpT mutant = assay type: cell-based
[1] = system: mouse macrophage RAW264.7 cells
[2] = system: intracellular F. novicida in A549 human alveolar epithelial cells; experiment: microbe, parasite or virus in culture; assay type: cell-based
[3] = system: intracellular F. novicida in RAW264.7 mouse macrophages; assay type: cell-based
[4] = system: intracellular F. novicida glpT mutant in A549 cells; assay type: cell-based
Wild-type F. novicida = experiment: microbe, parasite or virus in culture; assay type: cell-based; settings: for inhibition at 1000 µM: read-out: Inhibition of growth
[5] = system: human lung epithelial A549 cells
F. tularensis LVS DXR = F. tularensis LVS DXR (Francisella tularensis subsp. holarctica, UniProt Q2A4P9); experiment: biochemical
Chain of F. tularensis LVS DXR (Q2A4P9 whole entry, looked up): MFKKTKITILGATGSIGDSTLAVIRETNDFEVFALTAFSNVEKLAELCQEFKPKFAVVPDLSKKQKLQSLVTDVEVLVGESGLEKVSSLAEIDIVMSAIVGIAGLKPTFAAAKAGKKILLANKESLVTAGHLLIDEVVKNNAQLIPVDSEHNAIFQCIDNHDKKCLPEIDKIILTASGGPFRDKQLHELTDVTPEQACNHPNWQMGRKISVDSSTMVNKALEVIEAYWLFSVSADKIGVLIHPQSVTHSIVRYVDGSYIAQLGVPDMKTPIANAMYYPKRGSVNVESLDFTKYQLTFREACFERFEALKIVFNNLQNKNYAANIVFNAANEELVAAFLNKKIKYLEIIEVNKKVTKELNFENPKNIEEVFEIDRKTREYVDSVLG

[6] = mouse, in vivo; cited from earlier work
[7] = system: M. tuberculosis whole cells; settings: cited from earlier work
DXR of E. coli = settings: cited from earlier work
DXR from M. tuberculosis = settings: read-out: half maximal activity against DXR; cited from earlier work
[8] = Francisella tularensis, A549, 20 h, read-out: Inhibition of intracellular growth

SMILES	MIC (F. novicida glpT mutant) [µM]	Percent inhibition of growth (OD600 treated vs untreated) (F. novicida glpT mutant)	Cytotoxicity by LDH release [1]	inhibition at 250 µM [2, 8] [%]	Mean time to death (F. novicida; 30 mg/kg) [h]	Intracellular F. novicida remaining [3]	Effect on intracellular glpT mutant replication [4]	EC50 (Wild-type F. novicida) [µM]	Percent inhibition of growth (OD600 treated vs untreated) (Wild-type F. novicida) [%]	EC50 (Wild-type F. novicida; Francisella tularensis) [µM]	MIC (Wild-type F. novicida; Francisella tularensis, 48 h) [µM]	Cytotoxicity by LDH release [5]	Intracellular F. novicida remaining [2]	Well tolerated dose [6]	inhibition at 1000 µM (Wild-type F. novicida; Francisella tularensis) [%]	Effect on whole cells [7]	other results
O=C(O)c1cn(C2CC2)c2cc(N3CCNCC3)c(F)cc2c1=O [Ciprofloxacin]	–	–	–	–	–	–	–	–	–	–	–	–	–	–	–	–	Mean time to death (F. novicida; 20 mg/kg): 103 h
CC(=O)N(O)CCCP(=O)(OC(C)OC(=O)c1ccccc1)OC(C)OC(=O)c1ccccc1 (stereo not drawn) [Compound 1]	200 (≈ 98.7 µg/mL)	100%	did not induce cytotoxicity	97 ± 0.8	93	1.68±0.28 ×10^5 CFU/well and 0.92±0.18 ×10^5 CFU/well	susceptible; also recorded: significant effect	45.2 ± 3.7	100	45	202 (≈ 99.7 µg/mL)	did not induce cytotoxicity	–	–	–	–	inhibition at 400 µM [2, 8]: 99 ± 0.7%; Intracellular glpT mutant remaining [4]: 22.32±2.23 ×10^3 CFU/well
CCCCCCOP(=O)(CCCN(O)C(C)=O)OCCCCCC [Compound 2]	>1000	11±7%	–	–	–	–	–	–	27±14	481 ± 44	1090 (≈ 400 µg/mL)	–	–	–	–	–	MIC (Wild-type F. novicida; Francisella tularensis): 1100 µM (≈ 402 µg/mL)
CCOP(=O)(CCCN(O)C(C)=O)OCC [Compound 3]	–	–	–	–	–	–	–	–	–	–	–	–	–	–	–	–	Inhibition of F. novicida (result in words) (Wild-type F. novicida): did not effectively inhibit; also recorded: ineffective
CC(=O)N(O)CCCP(=O)(O)O [FR900098]	>1000	55±5%	did not induce cytotoxicity	86 ± 6	84	–	not affected; also recorded: no effect	23.2 ± 1.2	97.1±0.8	23	254 (≈ 50.1 µg/mL)	did not induce cytotoxicity	0.56±0.26 ×10^3 CFU/well and 0.59±0.40 ×10^3 CFU/well	up to 300 mg/kg	100	no effect on whole cells	IC50 (F. tularensis LVS DXR): 0.23 µM; Inhibition of intracellular growth [2]: 85±10%; IC50 (DXR of E. coli; read-out: IC50 against the DXR of E. coli): 0.062 µM
O=CN(O)CCCP(=O)(O)O [Fosmidomycin]	>1000	did not inhibit the growth of the glpT mutant at all	did not induce cytotoxicity	98 ± 0.7	102	0.93±0.20 ×10^5 CFU/well	not affected; also recorded: no effect	3.6 ± 0.2	99.6±0.2	3.5	136 (≈ 24.9 µg/mL)	did not induce cytotoxicity	0.07±0.03 ×10^3 CFU/well	up to 300 mg/kg	100	no effect on whole cells	Inhibition of growth (F. novicida glpT mutant): not able to inhibit F. novicida glpT growth at all; also recorded: completely resistant; Reduction of intracellular bacteria [2]: 2 log; IC50 (DXR from M. tuberculosis): 0.31 µM; IC50 (DXR of E. coli; read-out: half maximal activity against DXR): 0.035 µM
